Measured values: patent US20030060472A1, “Novel substituted nitrocatechols, their use in the treatment of some central and peripheral nervous system disorders and pharmaceutical compositions containing them” (priority 2001, published 2003)

What was measured:
Brain COMT = assay: Ex vivo COMT activity in mice brain homogenates after administration by gastric tube; conditions: for Brain COMT (% of control) 1 h / Brain COMT (% of control) 6 h: mice brain homogenates, means ± S.E.M. of 4-8; for Brain COMT (% of control) 1 h: 1 h after administration by gastric tube; for Brain COMT (% of control) 6 h: 6 h after administration by gastric tube; for Duration of COMT inhibition and activity in the brain: conclusion from the mice study
COMT = target: T1, COMT (Homo sapiens, UniProt P21964); assay: COMT activity (O-methylation of adrenaline to metanephrine) in intact SK-N-SH cells; type: cell-based; conditions: test compound 100 nM, means ± SEM, n = 4-8
T1 construct: O-methylationof adrenaline in intact SK-N-SH cells; host or cells: SK-N-SH cells
T1 sequence (P21964 1-271): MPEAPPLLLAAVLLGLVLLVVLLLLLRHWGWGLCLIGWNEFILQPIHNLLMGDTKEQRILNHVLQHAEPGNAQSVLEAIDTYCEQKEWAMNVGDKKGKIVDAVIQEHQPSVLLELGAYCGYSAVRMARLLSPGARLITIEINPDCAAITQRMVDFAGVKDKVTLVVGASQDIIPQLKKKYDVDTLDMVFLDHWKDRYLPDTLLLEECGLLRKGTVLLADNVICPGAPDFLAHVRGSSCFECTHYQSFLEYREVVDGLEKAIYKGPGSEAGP

Liver COMT = assay: Ex vivo COMT activity in mice liver homogenates after administration by gastric tube; conditions: for Liver COMT (% of control) 1 h / Liver COMT (% of control) 6 h: mice liver homogenates, means ± S.E.M. of 4-8; for Liver COMT (% of control) 1 h: 1 h after administration by gastric tube; for Liver COMT (% of control) 6 h: 6 h after administration by gastric tube; for Potency upon liver COMT compared with brain COMT: mice, after oral administration

Row | SMILES | Brain COMT (% of control) 1 h (Brain COMT) | Brain COMT (% of control) 6 h (Brain COMT) | Potency upon liver COMT compared with brain COMT (Liver COMT) | Duration of COMT inhibition and activity in the brain (Brain COMT) | other results
1 | Cl.O=C(CN1CCCCCC1)c1cc(O)c(O)c([N+](=O)[O-])c1 [Compound 1, 2-Azepan-1-yl-1-(3,4-dihydroxy-5-nitro-phenyl)-ethanone hydrochloride] | 45.0 ± 15.0 % of control | 102.0 ± 19.0 % of control |  |  | 
2 | CCN(CC)C(C)C(=O)c1cc(O)c(O)c([N+](=O)[O-])c1.Cl (stereo not shown) [Compound 7, 2-Diethylamino-1-(3,4-dihydroxy-5-nitro-phenyl)-propan-1-one hydrochloride] | 74.0 ± 12.0 % of control | 126.0 ± 8.0 % of control |  |  | COMT activity (% of control) (COMT): 9.0 ± 0.2 % of control; Liver COMT (% of control) 1 h (Liver COMT): 38.4 ± 2.8 % of control; Liver COMT (% of control) 6 h (Liver COMT): 57.1 ± 4.9 % of control
3 | Cl.O=C(CC(c1ccccc1)N1CCCCC1)c1cc(O)c(O)c([N+](=O)[O-])c1 (stereo not shown) [Compound 3, 1-(3,4-Dihydroxy-5-nitro-phenyl)-3-phenyl-3-piperidin-1-yl-propan-1-one hydrochloride] |  |  | much more potent upon liver COMT than brain COMT | long acting COMT inhibitor with limited activity in the brain | 
4 | Cl.N#CC1(c2ccccc2)CCN(CCC(=O)c2cc(O)c(O)c([N+](=O)[O-])c2)CC1 [Compound 15, 1-[3-(3,4-Dihydroxy-5-nitro-phenyl)-3-oxo-propyl]-4-phenyl-piperidine-4-carbonitrile hydrochloride] | 93.0 ± 9.0 % of control | 122.0 ± 9.0 % of control |  |  | COMT activity (% of control) (COMT): 2.9 ± 0.3 % of control; Liver COMT (% of control) 1 h (Liver COMT): 51.7 ± 5.9 % of control; Liver COMT (% of control) 6 h (Liver COMT): 37.9 ± 8.4 % of control
5 | Cl.O=C(CCN1CCCCCCC1)c1cc(O)c(O)c([N+](=O)[O-])c1 [Compound 16, 3-Azocan-1-yl-1-(3,4-dihydroxy-5-nitro-phenyl)-propan-1-one hydrochloride] |  |  | equally potent in inhibiting liver and brain COMT activity |  | 
6 | Cl.O=C(CCN1CCCCC1)c1cc(O)c(O)c([N+](=O)[O-])c1 [Compound 2, 1-(3,4-Dihydroxy-5-nitro-phenyl)-3-piperidin-1-yl-propan-1-one hydrochloride] |  |  | much more potent upon liver COMT than brain COMT | long acting COMT inhibitor with limited activity in the brain | 
7 | CC1CCCCN1CC(=O)c1cc(O)c(O)c([N+](=O)[O-])c1.Cl (stereo not shown) [Compound 6, 1-(3,4-Dihydroxy-5-nitro-phenyl)-2-(2-methyl-piperidin-1-yl)-ethanone hydrochloride] | 37.0 ± 3.3 % of control | 66.0 ± 2.6 % of control |  |  | 
8 | CC1CC(C)CN(CC(=O)c2cc(O)c(O)c([N+](=O)[O-])c2)C1.Cl (stereo not shown) [Compound 12, 1-(3,4-Dihydroxy-5-nitro-phenyl)-2-(3,5-dimethyl-piperidin-1-yl)-ethanone hydrochloride] | 32.0 ± 2.0 % of control | 84.0 ± 6.0 % of control |  |  | 
9 | O=C(COc1ccc2ccccc2c1)c1cc(O)c(O)c([N+](=O)[O-])c1 [Compound 10, 1-(3,4-Dihydroxy-5-nitro-phenyl)-2-(naphthalen-2-yloxy)-ethanone] |  |  | much more potent upon liver COMT than brain COMT | long acting COMT inhibitor with limited activity in the brain | 
10 | Cl.O=C(CC(c1ccccc1)N1CCOCC1)c1cc(O)c(O)c([N+](=O)[O-])c1 (stereo not shown) [Compound 5, 1-(3,4-Dihydroxy-5-nitro-phenyl)-3-morpholin-4-yl-3-phenyl-propan-1-one hydrochloride] |  |  | equally potent in inhibiting liver and brain COMT activity |  | 
11 | Cl.Cl.O=C(CCN1CCN(c2cccc(C(F)(F)F)c2)CC1)c1cc(O)c(O)c([N+](=O)[O-])c1 [Compound 18, 1-(3,4-Dihydroxy-5-nitro-phenyl)-3-[4-(3-trifluoromethyl-phenyl)-piperazin-1-yl]-propan-1-one dihydrochloride] |  |  | much more potent upon liver COMT than brain COMT | long acting COMT inhibitor with limited activity in the brain | 
12 | CC1CN(CC(=O)c2cc(O)c(O)c([N+](=O)[O-])c2)CC(C)O1.Cl (stereo not shown) [Compound 11, 1-(3,4-Dihydroxy-5-nitro-phenyl)-2-(2,6-dimethyl-morpholin-4-yl)-ethanone hydrochloride] | 80.0 ± 5.0 % of control | 103.0 ± 7.0 % of control |  |  | 
